Here are results for ten compounds from patent US20240376099A1, “COMPOUNDS AND COMPOSITIONS AS INHIBITORS OF ENDOSOMAL TOLL-LIKE RECEPTORS” (Novartis AG, priority 2016, published 2024).

Usually IC50 stands for the point on the concentration scale where inhibition reaches its midpoint.

Assay [1] concerns the target T1, TLR7 (Homo sapiens, UniProt Q9NYK1).
T1 construct: Fresh blood was collected from normal human donors; endogenous in cells; host or cells: human PBMCs from fresh donor blood
T1 sequence (Q9NYK1 27-1049): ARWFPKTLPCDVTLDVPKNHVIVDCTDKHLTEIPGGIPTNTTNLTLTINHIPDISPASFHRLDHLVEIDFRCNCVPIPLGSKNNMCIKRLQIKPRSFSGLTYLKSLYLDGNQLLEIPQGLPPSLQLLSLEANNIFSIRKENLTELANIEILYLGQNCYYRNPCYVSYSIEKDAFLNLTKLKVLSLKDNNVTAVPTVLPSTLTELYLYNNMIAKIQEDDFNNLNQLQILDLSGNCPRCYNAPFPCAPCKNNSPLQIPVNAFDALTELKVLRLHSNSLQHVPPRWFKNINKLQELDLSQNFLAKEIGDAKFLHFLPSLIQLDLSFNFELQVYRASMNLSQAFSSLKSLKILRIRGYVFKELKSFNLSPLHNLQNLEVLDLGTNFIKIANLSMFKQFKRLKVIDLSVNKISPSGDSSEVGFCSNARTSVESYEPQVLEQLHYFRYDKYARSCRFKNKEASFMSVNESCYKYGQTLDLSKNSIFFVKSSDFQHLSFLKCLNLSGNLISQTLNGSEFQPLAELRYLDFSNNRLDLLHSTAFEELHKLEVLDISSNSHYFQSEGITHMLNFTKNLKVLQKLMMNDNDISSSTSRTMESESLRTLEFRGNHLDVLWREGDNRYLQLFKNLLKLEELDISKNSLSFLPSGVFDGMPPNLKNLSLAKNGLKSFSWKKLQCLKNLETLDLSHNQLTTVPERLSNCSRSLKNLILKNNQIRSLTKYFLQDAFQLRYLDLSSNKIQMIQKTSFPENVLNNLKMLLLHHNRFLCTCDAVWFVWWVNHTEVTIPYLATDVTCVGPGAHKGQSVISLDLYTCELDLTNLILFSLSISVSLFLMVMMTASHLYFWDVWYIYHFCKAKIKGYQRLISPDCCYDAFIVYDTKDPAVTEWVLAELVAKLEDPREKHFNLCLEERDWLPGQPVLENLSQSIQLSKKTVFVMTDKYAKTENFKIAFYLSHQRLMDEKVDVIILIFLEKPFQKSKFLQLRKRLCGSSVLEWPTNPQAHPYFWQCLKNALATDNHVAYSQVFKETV
As to the kind of experiment: huPBMC TLR7 Antagonist IFNα Assay. The assay is classed as cell-based. To be noted: human PBMCs stimulated with ssRNA40 10 μg/mL (DOTAP), 14-16 hrs; IFNα2b AlphaLISA read-out. The procedure: (§1) Compounds were generally serially diluted (1/3) in DMSO and plated on sterile 384 well tissue culture plates and stored until ready for use. Each ten-point dilution was typically plated in triplicate in parallel rows.
(§2) Fresh blood was collected from normal human donors underwritten informed consent in heparinized syringes on the morning of the assay. The blood was diluted in RPMI-1640 medium and the white blood cells were separated from red blood cells by centrifugation (800 g 15′ 0 acceleration, 0 brake) on a Ficoll cushion. Peripheral blood mononuclear cells (PBMCs) were separated from platelets by a series of low-speed centrifugations (1000RPM 10′) in PBS+5% HI—FBS and 1 mM EDTA. Purified PBMCs were re-suspended in assay medium (RPMI-1640 w Glutamax (Invitrogen) supplemented with 5% HI—FBS, 10 mM HEPES, 50 uM β-mercaptoethanol, and 100 mG/L penicillin/streptomycin cocktail). Viable PBMCs were counted on a hemacytometer and kept on ice until ready for plating.
(§3) A 4× concentration (4 ug/ml or 40 ug/ml for TLR8 or TLR7 assays, respectively) of the TLR7/8 agonist ssRNA40 (IDT) was complexed with 10% DOTAP (Roche) in assay medium for 30 min prior to addition to the PBMC suspension (5 million cells/ml). After addition, the final concentration of ssRNA40 in the TLR7/8 stimulated PBMC suspension was 1 μg/ml for TLR8 assay, and 10 μg/mL for the TLR7 assay. The final DOTAP concentration was 2.5%. Diluted PBMCs (5 million cells/ml) were treated with 4×TLR9 agonist ODN2216 (Invivogen). Final concentration of ODN2216 in TLR9 stimulated PBMC suspension was 0.3 μM.
(§4) Agonist stimulated PBMCs were plated on the compound treated 384 well plates at 150,000 cells/well. Un-stimulated PBMCs were plated as controls on each plate. Plating volume was 40 μL per well. DMSO concentration in each well was 0.25%.
(§5) A separate plate, without compounds, with titrations of ssRNA40 and ODN2216 was included in every assay to measure agonist response of each donor's PBMC prep. Assay plates were placed in a tissue culture incubator (37° C., 5% CO2) for 14-16 hrs. After this incubation, the plates were centrifuged and stored at −20° C. until they were assayed.
(§6) IL-6 TR-FRET Assay for TLR8 activity: • 1) Cisbio Human IL-6 kit, 20,000 tests (62TNFPEC), and GNF High-Base TC 384 well plates (cat #789163G) were used; • 2) the Anti-TIL-6 Cryptate conjugate and the Anti-IL-6 XL665 conjugate were diluted 1:20 in Reconstitution Buffer; • 3) a 1:1 mixture of 3 μl/well Anti-IL-6 Cryptate conjugate and 3 μl/well Anti-IL-6 XL665 conjugate was prepared; • 4) 6 μl/well HTRF dilution mastermix was added to 6 μl of transferred supernatant samples in proxiplates; • 5) The plates were incubated for 3 hrs at rt in the dark; and • 6) the levels of IL-6 production was measured using an Envision plate reader (665 nm (emmission)/590 nm (excitation)) with HTRF settings and ratiometric read-out: (XL665 emission/Eu Cryptate emission)×10,000. IFNα2b AlphaLISA Assay for TLR7 or TLR9 activity After thawing the assay plates, 6 μL of supernatant samples were transferred to a low-volume AlphaPlate 384SW (Perkin-Elmer). The concentration of IFNα in supernatants was measured using the IFNα2b AlphaLISA Assay (Perkin-Elmer: AL297F). 3 μL of IFNα acceptor beads/biotinylated antibody solution was added first, using laboratory automation. After an hour incubation, […] of streptavidin […] bead solution was added. The plates containing this mixture were incubated in the dark for an hour and read on an appropriate plate reader at reading parameters set by the manufacturer. (Envision, EnSpire: Perkin-Elmer).
(In Alpha technology, singlet oxygen from a donor bead excites a nearby acceptor bead.)

For assay [2], the target named is T2, TLR8 (Homo sapiens, UniProt Q9NR97).
T2 sequence (Q9NR97 27-1041): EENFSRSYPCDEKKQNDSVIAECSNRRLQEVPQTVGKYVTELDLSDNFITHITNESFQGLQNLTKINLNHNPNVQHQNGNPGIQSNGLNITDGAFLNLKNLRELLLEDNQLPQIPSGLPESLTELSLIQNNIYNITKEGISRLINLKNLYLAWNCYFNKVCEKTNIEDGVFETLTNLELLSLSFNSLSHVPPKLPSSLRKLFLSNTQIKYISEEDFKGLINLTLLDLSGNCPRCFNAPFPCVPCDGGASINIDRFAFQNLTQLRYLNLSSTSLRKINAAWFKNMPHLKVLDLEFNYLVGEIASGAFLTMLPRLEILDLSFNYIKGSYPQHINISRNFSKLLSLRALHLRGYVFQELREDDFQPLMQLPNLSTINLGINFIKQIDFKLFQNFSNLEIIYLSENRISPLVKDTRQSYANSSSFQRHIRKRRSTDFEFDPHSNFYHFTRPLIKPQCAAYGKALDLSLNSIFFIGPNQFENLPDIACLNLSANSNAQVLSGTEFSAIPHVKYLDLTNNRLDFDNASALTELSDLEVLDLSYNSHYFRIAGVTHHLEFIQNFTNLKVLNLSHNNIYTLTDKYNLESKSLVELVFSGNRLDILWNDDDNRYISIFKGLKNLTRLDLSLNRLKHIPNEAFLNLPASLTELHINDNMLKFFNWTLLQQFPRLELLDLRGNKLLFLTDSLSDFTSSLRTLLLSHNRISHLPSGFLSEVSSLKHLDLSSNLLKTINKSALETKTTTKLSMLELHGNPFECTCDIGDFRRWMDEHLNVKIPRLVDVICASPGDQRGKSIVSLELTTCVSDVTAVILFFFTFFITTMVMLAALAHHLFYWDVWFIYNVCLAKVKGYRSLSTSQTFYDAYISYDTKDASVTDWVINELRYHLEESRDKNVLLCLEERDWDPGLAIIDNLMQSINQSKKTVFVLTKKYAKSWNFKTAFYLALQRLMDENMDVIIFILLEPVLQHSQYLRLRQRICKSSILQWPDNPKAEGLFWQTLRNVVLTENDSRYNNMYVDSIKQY
As to the kind of experiment: huPBMC TLR8 Antagonist IL-6 TR-FRET Assay. The format is cell-based. The settings on record: human PBMCs stimulated with ssRNA40 1 μg/ml (DOTAP), 14-16 hrs; IL-6 TR-FRET read-out. Details: Fresh blood was collected from normal human donors; endogenous in cells; host or cells: human PBMCs from fresh donor blood. The protocol: as §1, §2, §3, §4, §5, §6
(TR-FRET usually uses a lanthanide donor and a delayed reading to cut background.)

In the case of `Cc1cc(N2CCc3c(c(C)nn3CC34CCC(N)(CC3)CC4)C2)c2ccn(C)c2n1` [Compound No. 5, 4-((5-(1,6-dimethyl-1H-pyrrolo[2,3-b]pyridin-4-yl)-3-methyl-4,5,6,7-tetrahydro-1H-pyrazolo[4,3-c]pyridin-1-yl)methyl)bicyclo[2.2.2]octan-1-amine], the values for the IC50 in assay [1] and in assay [2] were 397 nM and 433 nM, respectively. For `Cc1cc(N2CCc3c(c(C)nn3CC34CCC(NS(C)(=O)=O)(CC3)CC4)C2)c2cnn(C)c2n1` [Compound No. 48, N-(4-((5-(1,6-dimethyl-1H-pyrazolo[3,4-b]pyridin-4-yl)-3-methyl-4,5,6,7-tetrahydro-1H-pyrazolo[4,3-c]pyridin-1-yl)methyl)bicyclo[2.2.2]octan-1-yl)methanesulfonamide], the IC50 in assay [1] was found to be 13 nM. With `Cc1cc(N2CCc3c(c(C)nn3CC34CCC(NCC(F)F)(CC3)CC4)C2)c2cnn(C)c2n1` [Compound No. 61, N-(2,2-difluoroethyl)-4-((5-(1,6-dimethyl-1H-pyrazolo[3,4-b]pyridin-4-yl)-3-methyl-4,5,6,7-tetrahydro-1H-pyrazolo[4,3-c]pyridin-1-yl)methyl)bicyclo[2.2.2]octan-1-amine], the IC50 was 12 nM in assay [1] and 129 nM in assay [2]. Consider `Cc1nc(N2CCc3c(c(C)nn3CC34CCC(NC(=O)C5CNC5)(CC3)CC4)C2)c2c(n1)c(C)nn2C` [compound 32, N-(4-((3-methyl-5-(1,3,5-trimethyl-1H-pyrazolo[4,3-d]pyrimidin-7-yl)-4,5,6,7-tetrahydro-1H-pyrazolo[4,3-c]pyridin-1-yl)methyl)bicyclo[2.2.2]octan-1-yl)azetidine-3-carboxamide], for which the IC50 in assay [1] worked out at 124 nM; in assay [2] it was 125 nM. Taken in the same sequence, the figures for `Cc1cc(N2Cc3cnn(CC45CCC(N)(CC4)CC5)c3C(C)(C)C2)c2cnn(C)c2n1` [compound 60, 4-((5-(1,6-dimethyl-1H-pyrazolo[3,4-b]pyridin-4-yl)-7,7-dimethyl-4,5,6,7-tetrahydro-1H-pyrazolo[4,3-c]pyridin-1-yl)methyl)bicyclo[2.2.2]octan-1-amine] were 1030 nM and 277 nM. Regarding `Cc1nn(CC23CCC(N)(CC2)CC3)c2c1CN(c1ccnc(-c3ccccc3)c1)CC2` [compound 63, 4-((3-methyl-5-(2-phenylpyridin-4-yl)-4,5,6,7-tetrahydro-1H-pyrazolo[4,3-c]pyridin-1-yl)methyl)bicyclo[2.2.2]octan-1-amine], the 50% inhibitory concentration (IC50) came out at 34 nM in assay [1] and 568 nM in assay [2]. As for `Cc1cc(N2CCc3c(c(C)nn3CC34CCC(N5CCCCC5)(CC3)CC4)C2)c2cnn(C)c2n1` [compound 67, 5-(1,6-dimethyl-1H-pyrazolo[3,4-b]pyridin-4-yl)-3-methyl-1-((4-(piperidin-1-yl)bicyclo[2.2.2]octan-1-yl)methyl)-4,5,6,7-tetrahydro-1H-pyrazolo[4,3-c]pyridine], the concentration for half-maximal inhibition (IC50) in assay [1] came to 5 nM; in assay [2] it was 11 nM. As for `Cc1cc(N2CCc3c(c(C)nn3CC34CCC(N5C[C@H]6CC[C@@H](C5)O6)(CC3)CC4)C2)c2cnn(C)c2n1` [compound 120, (1R,5S)-3-(4-((5-(1,6-dimethyl-1H-pyrazolo[3,4-b]pyridin-4-yl)-3-methyl-4,5,6,7-tetrahydro-1H-pyrazolo[4,3-c]pyridin-1-yl)methyl)bicyclo[2.2.2]octan-1-yl)-8-oxa-3-azabicyclo[3.2.1]octane], the IC50 in assay [1] came to 4 nM; in assay [2], 20 nM. Turning to `Cc1nc(N2CCc3c(c(C)nn3CC34CCC(N)(CC3)CC4)C2)c2cnn(C)c2n1` [compound 149, 4-((5-(1,6-dimethyl-1H-pyrazolo[3,4-d]pyrimidin-4-yl)-3-methyl-4,5,6,7-tetrahydro-1H-pyrazolo[4,3-c]pyridin-1-yl)methyl)bicyclo[2.2.2]octan-1-amine], the IC50 in assay [2] amounted to 695 nM.

For `CCn1ncc2c(N3CCc4c(c(C)nn4CC45CCC(N)(CC4)CC5)C3)cc(C)nc21` [compound 150, 4-((5-(1-ethyl-6-methyl-1H-pyrazolo[3,4-b]pyridin-4-yl)-3-methyl-4,5,6,7-tetrahydro-1H-pyrazolo[4,3-c]pyridin-1-yl)methyl)bicyclo[2.2.2]octan-1-amine], the 50% inhibitory concentration (IC50) in assay [2] stood at 4200 nM.
